This is an account of results in patent publication US4195093A, “Furoyl- and thenoyl-aryloxyalkyl carboxylic acid derivatives, their preparation and their use in therapy” (Albert Rolland S.A., priority 1977, dated 1980).

Where a name gives a salt, the structure may show the parent alone. Read-outs that look alike come from different tables or passages of the source.

A short description of series [1]: Acute toxicity orally in mice (method of BLISS). Particulars: mouse, in vivo. The protocol: The acute toxicity of the new compounds has been studied in mice orally, according to the method of BLISS (Quart. J. Pharm. Pharmacol. (1938) 2 192-216); with the exception of the compounds in Examples 3 and 13, which have an LD50 in the region of 700 mg/kg, all the other compounds have an LD50 above 1000 mg/kg.

Series [2] concerns phenol red in the blood. The experiment in a line: Uricosuric activity: retention of phenol red in the blood of rats. It counts as in vivo. The settings on record: Rattus norvegicus, read-out: Maximum Ratio measured (phenol red in blood, treated to non-treated). The protocol: The uricosuric activity of the compounds has been shown by the method described by H. C. SCARBOROUGH and G. R. McKINNEY (J. Med. Pharm. Chem. (1962) 5 175) as well as by E. KREPPEL (Med. Exptl. (1959) 1 285); phenol red is administered intravenously to rats and the development of the concentration of this colourant in their blood is studied as a function of time. It is known that rats, which one hour before the beginning of the experiment have received an uricosuric agent, show, in comparison with non-treated animals, retention of phenol red in the blood.
The ratio is that of the concentrations of phenol red found in the blood of animals which have received the test compounds at the dose indicated at the specified time to the concentrations for non-treated animals.

The nature of series [3]: Diuretic ability in mice (urine volume ratio treated/control). It counts as in vivo. The protocol: The diuretic ability of the novel compounds according to the invention has been studied in mice. It is expressed in Table III in the form of a ratio of the volume of urine for the treated animals received during 2 and 4 hours after administration (at the indicated dose) of the test compound to the volume measured under the same conditions for the control animals.

Series [4] is described as follows: Solubility in aqueous medium (statement). It counts as physicochemical.
Setting [5] is: 0.75 h, 45 minutes after injection of the colourant.
The mark [6] stands for this setting: 1 h, 60 minutes after injection of the colourant.
Where [7] appears, read: 0.25 h, 15 minutes after injection of the colourant.

In the case of `CCc1oc2ccccc2c1C(=O)c1cc(I)c(O)c(I)c1` [benziodarone, 2-ethyl-3-(4-hydroxy-3,5-diiodobenzoyl)-benzo[b]furane, reference compound], in series [1] (po), the LD50 amounted to 1400 mg/kg. In addition, the response vs control in vivo at 100 mg/kg in series [2] (setting [5]) was found to be 53%.

For the molecule `O=C(O)CCOc1ccc(C(=O)c2cccs2)c2ccccc12` [Example 13], the LD50 in series [1] (mice, oral, method of BLISS) is about 700 mg/kg. `O=C(O)COc1c(Br)cc(C(=O)c2cccs2)c2ccccc12` [Example 6]: the response vs control in vivo at 50 mg/kg in series [2] (setting [6]) was 116%. Consider `O=C(O)COc1ccc(C(=O)c2ccsc2)c2ccccc12` [Example 10], for which the response vs control in vivo at 100 mg/kg in series [2] (0.5 h, 30 minutes after injection of the colourant) stood at 53%. In series [3] (200 mg/kg p.o.), the “Diuretic Ability, 0 to 2 hours (ratio of urine volume treated/control)” value is reported as 1.38 and the “Diuretic Ability, 0 to 4 hours (ratio of urine volume treated/control)” value turned out to be 1.77.

`O=C(O)COc1ccc(C(=NO)c2cccs2)c2ccccc12` [Example 2, [4-(2-Thienyl-hydroxyiminomethyl)-1-naphthyloxy]-acetic acid]: the response vs control in vivo at 100 mg/kg in series [2] (setting [5]) is 77%. On to `O=C(O)COc1ccc(C(=O)c2cccs2)c2ccccc12` [tri(hydroxymethyl)methylamine salt], for which, in series [4], the “solubility in aqueous medium” value is given as “particularly useful because of its solubility in aqueous medium”. With `Cc1ccc(C(=O)c2ccc(OCC(=O)O)c3ccccc23)s1` [Example 7], the response vs control in vivo at 100 mg/kg in series [2] (setting [7]) came out at 44%. In series [3] (50 mg/kg p.o.), the “Diuretic Ability, 0 to 2 hours (ratio of urine volume treated/control)” value stood at 2.01 and the “Diuretic Ability, 0 to 4 hours (ratio of urine volume treated/control)” value was determined as 1.70.

Regarding `O=C(O)CCOc1ccc(C(=O)c2ccco2)c2ccccc12` [Example 14], the response vs control in vivo at 75 mg/kg in series [2] (1 h, dose 75 mg/kg, 60 minutes after injection of the colourant) was found to be 80%. `O=C(O)COc1ccc(C(=O)c2cccs2)c2ccccc12` [Example 1, [4-(2-Thenoyl)-1-naphthyloxy]-acetic acid]: the response vs control in vivo at 50 mg/kg in series [2] (setting [5]) was 100%. In series [2] (setting [6]), the response vs control in vivo at 100 mg/kg came to 121%.

For `O=C(O)COc1ccc(C(=O)c2cc3ccccc3o2)c2ccccc12` [Example 12], the response vs control in vivo at 50 mg/kg in series [2] (setting [7]) was determined as 51%.

With `O=C(O)COc1ccc(C(=O)c2ccoc2)c2ccccc12` [Example 3, [4-(3-Furoyl)-1-naphthlyloxy]-acetic acid], the LD50 in series [1] (mice, oral, method of BLISS) was about 700 mg/kg. Besides, in series [3] (20 mg/kg p.o.), the “Diuretic Ability, 0 to 2 hours (ratio of urine volume treated/control)” value was determined as 1.53 and the “Diuretic Ability, 0 to 4 hours (ratio of urine volume treated/control)” value is listed as 1.31. Further, in series [3] (50 mg/kg p.o.), the “Diuretic Ability, 0 to 2 hours (ratio of urine volume treated/control)” value is listed as 1.48 and the “Diuretic Ability, 0 to 4 hours (ratio of urine volume treated/control)” value worked out at 1.44.
